As usually defined, the IC50 is the midpoint of a concentration-inhibition curve.

Read-outs that look alike come from different tables or passages of the source.

These results are taken from US20260209152A1, “Substituted Hydroxystilbene Compounds and Derivatives, Synthesis and Uses Thereof” (Kynan Duke IP, LLC, priority 2019, published 2026).

For one test, the system named is Pancreatic MIA PaCa-2. Put plainly: CellTiter Glo cell viability assay. Format: cell-based, human. The note with it: read-out: IC50. As to the method:
1.7*10^3 cells/well were seeded in quadruplicates in 96-well plate after plating. Drugs were added at 5 μM and 2-fold dilutions over 18 concentrations (0.000038146-5 […] range) to generate a dose-response curve. Cell growth was assessed on day 1, 3 and 5 after drug treatments using the CellTiter Glo Luminescence Cell Viability Assay (Promega) according to manufacturer's protocol. Thermo Scientific Varioskan LUX Multimode Microplate instrument was used for plate reading. Data are expressed as mean luminescence (arbitrary units) ±S.D.
Cell Viability Assays were employed to determine the concentration of Compound 1 (KYN-001) and analogues where the response is reduced by half. For each treatment of cancer cells, 1, 2, 5, 10 and 20 μM solutions of compounds were applied. GraphPad Prism 7 software was used to fit dose response curves. Relative Luminescence Units were plotted against the log values of the doses used and the nonlinear regression model was used for data analysis.
The protocol for cell proliferation was optimized for Compound 8 (KYN-119) to enable a more accurate assessment of its low IC50 value. In this protocol, 18 dosages (2 fold dilutions ranging from 0.000038146 to 5 μM) were applied to cells seeded in 96-well plates, and Luminescence was measured after 1, 3 and 5 days upon treatments.
Day 3 upon treatment of MIA PaCa_2 pancreatic cancer cells, 24 h after plating (11 dilutions), as assessed by CellTiter Glow Assay.
(In general: In ATP-based viability assays light output follows the ATP content of the culture.)

Another test has as its system Kidney A-498. Put plainly: CellTiter Glo cell viability assay. Format: cell-based, human. The note with it: read-out: IC50. As to the method:
1.7*10^3 cells/well were seeded in quadruplicates in 96-well plate after plating. […] Cell growth was assessed on day 1, 3 and 5 after drug treatments using the CellTiter Glo Luminescence Cell Viability Assay (Promega) according to manufacturer's protocol. Thermo Scientific Varioskan LUX Multimode Microplate instrument was used for plate reading. Data are expressed as mean luminescence (arbitrary units) ±S.D.
Cell Viability Assays were employed to determine the concentration of Compound 1 (KYN-001) and analogues where the response is reduced by half. […] GraphPad Prism 7 software was used to fit dose response curves. Relative Luminescence Units were plotted against the log values of the doses used and the nonlinear regression model was used for data analysis.
The protocol for cell proliferation was optimized for Compound 8 (KYN-119) to enable a more accurate assessment of its low IC50 value. […]

Setting [1] is: Homo sapiens, MIA PaCa-2, 72 h, Table 4: 3 Days of treatment, 18 2-fold dilutions 5-0.00003 μM, Average (1, 8) or single Exp A-D.
[2] abbreviates: Table 5A: 11 dilutions 3-0.00001 μM, single experiments Exp E-K, listed as KYN-139.
Where [3] appears, read: Homo sapiens, A498, 72 h, Table 4: 3 Days of treatment, 18 2-fold dilutions 5-0.00003 μM, Average (1, 8) or single Exp A-D.
[4] abbreviates: Table 5A: 11 dilutions 3-0.00001 μM, single experiments Exp E-K, listed as KYN-140.
Setting [5] is: Homo sapiens, A498, Table 5A: 11 dilutions 3-0.00001 μM, single experiments Exp E-K.
Where [6] appears, read: Homo sapiens, MIA PaCa-2, Table 5A: 11 dilutions 3-0.00001 μM, single experiments Exp E-K.
[7] abbreviates: Table 5A: 11 dilutions 3-0.00001 μM, single experiments Exp E-K.

`C/C=C\Cc1c(/C=C/c2ccc(O)c(OC)c2)cc(O)cc1OC` [Compound 3, 4-((Z)-but-2-en-1-yl)-3-((E)-4-hydroxy-3-methoxystyryl)-5-methoxyphenol]: the IC50 in the test on Pancreatic MIA PaCa-2 (setting [1]) was found to be 381 nM; with Pancreatic MIA PaCa-2 (setting [2]), 520 nM; in the test with Kidney A-498 (setting [3]), 361 nM; in the test with Kidney A-498 (setting [2]), 545 nM.

In the case of `C=CC(C)c1c(/C=C/c2ccc(O)c(OC)c2)cc(O)cc1OC` (stereo not drawn) [Compound 4, (E)-4-(but-3-en-2-yl)-3-(4-hydroxy-3-methoxystyryl)-5-methoxyphenol], the IC50 in the test with Pancreatic MIA PaCa-2 (setting [1]) came out at 755 nM; with Pancreatic MIA PaCa-2 (setting [4]), 746 nM; in the test with Kidney A-498 (setting [3]) it was 667 nM; with Kidney A-498 (setting [4]), 754 nM.

For `C/C=C/Cc1c(/C=C/c2ccc(O)c(OC)c2)cc(O)cc1OCC` [Compound 5, 4-((E)-But-2-en-1-yl)-3-ethoxy-5-((E)-4-hydroxy-3-methoxystyryl)phenol], the IC50 worked out at 27.5 nM in the test with Pancreatic MIA PaCa-2 (Table 5A: 11 dilutions 3-0.00001 μM, single experiments Exp E-K, listed as KYN-153) and 1190 nM with Kidney A-498 (setting [5]).

In the case of `COc1cc(/C=C/c2cc(O)cc(OC)c2CC=C(C)C)cc(O)c1O` [Compound 18, (E)-5-(5-Hydroxy-3-methoxy-2-(3-methylbut-2-en-1-yl)styryl)-3-methoxybenzene-1,2-diol], the IC50 with Pancreatic MIA PaCa-2 (setting [6]) is about 1000 nM; in the test with Kidney A-498 (setting [5]), about 3000 nM.

As to `COc1cc(/C=C/c2cc(O)cc(OC)c2CC=C(C)C)ccc1C(=O)O` [Compound 21, (E)-4-(5-Hydroxy-3-methoxy-2-(3-methylbut-2-en-1-yl)styryl)-2-methoxybenzoic acid], the results for the IC50 in the test on Pancreatic MIA PaCa-2 (setting [6]), in the test on Kidney A-498 (setting [5]) and with Kidney A-498 (setting [7]) were over 3000 nM, over 3000 nM and about 3000 nM, respectively.

Turning to `COc1cc(/C=C/c2cc(O)cc(OC)c2CC=C(C)C)ccc1NS(C)(=O)=O` [Compound 25, (E)-N-(4-(5-hydroxy-3-methoxy-2-(3-methylbut-2-en-1-yl)styryl)-2-methoxyphenyl)methanesulfonamide], the IC50 came out at 7740 nM with Pancreatic MIA PaCa-2 (setting [1]) and 15000 nM in the test with Kidney A-498 (setting [5]).

With `CCOc1cc(O)cc(/C=C/c2ccc(NC(=O)CN)c(OC)c2)c1CC=C(C)C` [Compound 32, (E)-2-Amino-N-(4-(3-ethoxy-5-hydroxy-2-(3-methylbut-2-en-1-yl)styryl)-2-methoxyphenyl)acetamide], in the test on Kidney A-498 (setting [5]), the IC50 stood at 1840 nM.

In the case of `CCOc1cc(O)cc(/C=C/c2ccc(NCC(=O)OC)c(OC)c2)c1CC=C(C)C` [Compound 34, Methyl (E)-(4-(3-ethoxy-5-hydroxy-2-(3-methylbut-2-en-1-yl)styryl)-2-methoxyphenyl)glycinate], the half-maximal inhibitory concentration (IC50) is 100 to 1000 nM in the test with Pancreatic MIA PaCa-2 (setting [6]) and 173 nM in the test on Pancreatic MIA PaCa-2 (setting [7]).

As for `CCOc1cc(O)cc(/C=C/c2ccc(NC(=O)CCC(=O)O)c(OC)c2)c1CC=C(C)C` [Compound 37, (E)-4-((4-(3-Ethoxy-5-hydroxy-2-(3-methylbut-2-en-1-yl)styryl)-2-methoxyphenyl)amino)-4-oxobutanoic acid], in the test on Pancreatic MIA PaCa-2 (setting [6]), the IC50 was over 3000 nM.

On to `[H]/N=C(\N)Nc1ccc(C=Cc2cc(O)cc(OCC)c2CC=C(C)C)cc1OC` [Compound 38, (E)-1-(4-(3-ethoxy-5-hydroxy-2-(3-methylbut-2-en-1-yl)styryl)-2-methoxyphenyl)guanidine], for which the IC50 in the test on Pancreatic MIA PaCa-2 (setting [6]) is over 3000 nM; in the test with Kidney A-498 (setting [5]), 100 to 1000 nM; with Kidney A-498 (setting [7]) it was about 100 nM.
